For data set [1] the following is noted: literature, cited from earlier work.
The conditions of data set [2]: guinea pig liver microsomal preparation; literature; cited from earlier work. A general note: Liver microsomes are a subcellular fraction often used to study metabolism.
The conditions of data set [3]: background, cited from earlier work.
For data set [4] the following is noted: administered to rats; literature; cited from earlier work.
For data set [5] the following is noted: literature, cited from earlier work; for therapeutic index: relative to corresponding tertiary amines.
For data set [6] the following is noted: literature; cited from earlier work.
For data set [7] the following is noted: administered to mice; literature; cited from earlier work.
For data set [8] the following is noted: administered to rabbits; literature; cited from earlier work.
A short description of data set [9]: In vitro reduction of N-oxide to drug in human plasma. In kind it is in vitro ADME. The settings on record: 37° C., 0.28 μM. The procedure: (§1) Among the experiments used to evaluate the N-oxide prodrugs of the instant invention were measurements of their reduction rates in vitro by various biological media from rats, dogs, and humans, and drug bioavailability in rats and dogs administered oral doses of the prodrug. Drug concentration was determined after solvent extraction, using high pressure liquid chromatography analytical procedures.
(§2) Prodrug was added to fresh biological medium to a concentration of 0.28 μM, incubated at 37° C., and the rate of drug appearance was measured.

Data set [10] can be described thus: In vitro reduction of N-oxide to drug in rat intestine homogenate. Format: in vitro ADME. The settings on record: in 10 minutes, rat intestine homogenate (25%), 37° C., read-out: Conversion of nalbuphine N-oxide to nalbuphine. The procedure:
as §1, §2

Data set [11] in a line: In vitro reduction of N-oxide to drug in rat plasma. Format: in vitro ADME. The settings on record: 37° C., read-out: t1/2 of conversion of nalbuphine N-oxide to nalbuphine (converted). The procedure: as §1, §2
The nature of data set [12]: In vitro reduction of N-oxide to drug in rat liver homogenate. In kind it is in vitro ADME. The settings on record: in 3 minutes, rat liver homogenate (25%), 37° C., read-out: Conversion of nalbuphine N-oxide to nalbuphine. On the procedure:
as §1, §2

Data set [13] in a line: In vitro reduction of N-oxide to drug in dog plasma. The settings on record: 37° C., read-out: t1/2 of conversion of nalbuphine N-oxide to nalbuphine (converted). Format: in vitro ADME. On the procedure: as §1, §2
Data set [14] can be described thus: Oral bioavailability in rats. Format: in vivo. The settings on record: plasma; rat, oral nalbuphine; read-out: F(DRUG), nalbuphine bioavailability from orally administered parent drug. On the procedure: as §1
(§3) Rats and dogs were administered the parent drug intravenously and orally, and the prodrugs were administered orally. Usually, doses were administered as aqueous solutions prepared immediately before dosing. Plasma was collected and frozen until analysis of drug concentration. The area under the plasma drug concentration versus time curve (AUC) was calculated for each animal. Bioavailability (F) was estimated by: [formula] F represents the percentage of the administered dose absorbed into plasma. Relative bioavailability (RB) of parent drug was determined by comparing the bioavailability from orally administered prodrug F(pro) with the bioavailability from orally administered parent drug F(drug). [formula]

Data set [15] in a line: Oral bioavailability in dogs. Format: in vivo. The settings on record: plasma, dog, read-out: oral bioavailability of nalbuphine. The procedure: as §1, §3
Data set [16] in a line: Plasma naloxone concentration after oral dosing in dogs. The settings on record: dog; for concentration at 0.5 h / concentration at 1 h / concentration at 2 h / concentration at 3 h / concentration at 4 h / concentration at 6 h / concentration at 8 h: in vivo, equimolar oral doses, read-out: Average Plasma Naloxone Conc. In kind it is in vivo. The procedure: as §1
(§4) Rats and dogs were administered the parent drug intravenously and orally, and the prodrugs were administered orally. Usually, doses were administered as aqueous solutions prepared immediately before dosing. Plasma was collected and frozen until analysis of drug concentration. The area under the plasma drug concentration versus time curve (AUC) was calculated for each animal. […]. Relative bioavailability (RB) of parent drug was determined by comparing the bioavailability from orally administered prodrug F(pro) with the bioavailability from orally administered parent drug F(drug). [formula]

A short description of data set [17]: Plasma naltrexone concentration after oral dosing in dogs. Format: in vivo. The settings on record: dog, normalized for dose. The procedure:
as §1, §4

For data set [18] the following is noted: literature, cited from earlier work. This is another data set of the same source.
For data set [19] the following is noted: rabbits administered oxycodone subcutaneously; literature; cited from earlier work.

For orientation: bioavailability means dose-corrected exposure relative to a reference, in per cent.

Counter-ions that a name gives are not always drawn. Like-named read-outs stand apart in the source and are kept apart here.

Turning to `CC[N+]([O-])(CC)CC(=O)N1CCN2C(=O)c3ccccc3C12c1ccccc1` (stereo not drawn), the pharmacological properties result in data set [1] (Swiss Patent No. 481,124) was “analgesic, sedative, antitussive, hypotensive, and spasmolytic properties”.
On to 3-methyl-morphine [Codeine], for which the “conversion to N-oxide” value in [2] is recorded as “converted in part to the corresponding N-oxides”. Also, the “oral:parenteral potency ratio” value in data set [3] (relative to morphine) is listed as “much higher oral:parenteral potency ratio than morphine”. The “metabolism to N-oxide” value in data set [4] is given as “partially metabolized to the N-oxides”.
Regarding `C[N+]1([O-])CC[C@]23CCCC[C@H]2[C@H]1Cc1ccc(O)cc13` (stereo partly drawn) [3-hydroxy-N-methylmorphinan N-oxide], the therapeutic index result in data set [5] is given as “higher therapeutic index than the corresponding tertiary amines”.
`COc1ccc2c(c1)[C@@]13CCCC[C@H]1[C@@H](C2)[N+](C)([O-])CC3` (stereo partly drawn) [3-methoxy-N-methylmorphinan N-oxide]: in [5], the therapeutic index result is on record as “higher therapeutic index than the corresponding tertiary amines”.
As to `C[N+]1([O-])CC[C@]23c4c5ccc(O)c4O[C@H]2[C@@H](O)C=C[C@H]3[C@H]1C5` (stereo partly drawn) [Morphine N-oxide], the analgesic activity result in data set [1] was “either less active or inactive as an analgesic”. In [6], the antitussive activity entry is given as “effective antitussive”. Besides, in data set [5], the toxicity result was “somewhat lower toxicity than morphine”. The “reduction of N-oxide to tertiary amine” value in data set [4] is given as “partially reduced to morphine”.
`CCC(=O)OC1(c2ccccc2)CC[N+](C)([O-])CC1` (stereo not drawn) [N-oxide of 1-methyl-4-phenyl-4-piperidinol propionate]: the “reduction of N-oxide to tertiary amine” value in data set [7], in [8] and in data set [4] was “partially reduced to the tertiary amine” throughout.
For `CCC(=O)OC1(c2ccccc2)CC[N+](C)([O-])CC1` (stereo not drawn) [N-oxide of 1-methyl-4-phenyl-4-propionoxypiperidine HCl], the “duration of analgesic activity” value in [1] (relative to dolantin HCl) is “of longer duration”. Further, in data set [1], the analgesic activity entry is recorded as “analgesic activity equal to that of dolantin HCl”. Moreover, in data set [5], the toxicity result is reported as “Toxicity was also less”.
Take `[O-][N+]1(CC2CCC2)CC[C@]23c4c5ccc(O)c4O[C@H]2[C@@H](O)CC[C@@]3(O)[C@H]1C5` (stereo partly drawn) [Nalbuphine N-oxide]: the “Rate of conversion of nalbuphine N-oxide to nalbuphine” value in data set [9] is “negligible”. Further, the metabolised at 10 min, 0.28 µM in [10] is 100%. For the same molecule, the half-life at 0.28 µM in [11] was 6 h; in data set [13] it was 53.7 h. The metabolised at 0.05 h, 0.28 µM in [12] was 100%.
For `Oc1ccc2c3c1O[C@H]1[C@@H](O)CC[C@@]4(O)[C@@H](C2)N(CC2CCC2)CC[C@]314` [Nalbuphine, (-)-17-(Cyclobutylmethyl)-4,5α-epoxymorphinan-3,6α,14-triol], the bioavailability in data set [14] is 2.7 ± 0.4%; in data set [15], 5.4%.
For the molecule `C=CC[N+]1([O-])CC[C@]23c4c5ccc(O)c4O[C@H]2C(=O)CC[C@@]3(O)[C@H]1C5` (stereo partly drawn) [Naloxone N-oxide, naloxone N-oxide], the “Oral naloxone bioavailability when administered as the N-oxide, relative to naloxone” value in [16] (oral) is “improved”. For the same molecule, in data set [16], the concentration at 0.5 h is 947 ng/mL, the concentration at 1 h was 1220 ng/mL, the concentration at 2 h is 797 ng/mL and the concentration at 3 h was 289 ng/mL. Moreover, in [16], the concentration at 4 h amounted to 107 ng/mL, the concentration at 6 h stood at 22 ng/mL and the concentration at 8 h was 6 ng/mL.
`C=CCN1CC[C@]23c4c5ccc(O)c4O[C@H]2C(=O)CC[C@@]3(O)[C@H]1C5` [Naloxone, (-)-17-Allyl-4,5α-epoxy-3,14-dihydroxymorphinan-6-one]: in data set [16], the concentration at 0.5 h came to 451 ng/mL, the concentration at 1 h stood at 176 ng/mL, the concentration at 2 h was 65 ng/mL and the concentration at 3 h worked out at 30 ng/mL. In addition, in [16], the concentration at 4 h amounted to 10 ng/mL, the concentration at 6 h stood at 10 ng/mL and the concentration at 8 h was 5 ng/mL.
As for `O=C1CC[C@@]2(O)[C@H]3Cc4ccc(O)c5c4[C@@]2(CC[N+]3([O-])CC2CC2)[C@H]1O5` (stereo partly drawn) [Naltrexone N-oxide], the “Average Plasma Naltrexone Conc.” value came out at 424 ng/mL in data set [17] (0.25 hours); 752 ng/mL in data set [17] (0.5 hours); 713 ng/mL in data set [17] (1 hour); 559 ng/mL in data set [17] (1.5 hours); 484 ng/mL in data set [17] (2 hours); 251 ng/mL in data set [17] (3 hours). The “Average Plasma Naltrexone Conc.” value amounted to 110 ng/mL in data set [17] (4 hours), 24 ng/mL in data set [17] (6 hours) and 8 ng/mL in [17] (8 hours).
Regarding `O=C1CC[C@@]2(O)[C@H]3Cc4ccc(O)c5c4[C@@]2(CCN3CC2CC2)[C@H]1O5` [Naltrexone, (-)-17-(Cyclopropylmethyl)-4,5α-epoxy-3,14-dihydroxymorphinan-6-one], the “Average Plasma Naltrexone Conc.” value was found to be 9 ng/mL in [17] (0.25 hours); 9 ng/mL in data set [17] (0.5 hours); 4 ng/mL in data set [17] (1 hour); 4 ng/mL in data set [17] (1.5 hours); 0 ng/mL in data set [17] (2 hours); 0 ng/mL in data set [17] (3 hours). Moreover, the “Average Plasma Naltrexone Conc.” value in data set [17] (4 hours), in data set [17] (6 hours) and in data set [17] (8 hours) was 0 ng/mL in each case.
Regarding `COc1ccc2c3c1O[C@H]1C(=O)CC[C@@]4(O)[C@@H](C2)N(C)CC[C@]314` [Oxycodone], in data set [3], the oral potency entry is listed as “similarly good oral potency”.
`C[N+]1([O-])CCC[C@H]1c1cccnc1` (stereo partly drawn) [nicotine-1'-N-oxide]: in data set [18] (man, oral versus intravenous), the reduction to nicotine result was “partially reduced to nicotine in man after oral administration, but not after intravenous administration”. The first-pass phenomenon entry in data set [18] (oral) is “substantially avoids the first-pass phenomenon seen with oral nicotine”.
Regarding `COc1ccc2c3c1O[C@H]1C(=O)CC[C@@]4(O)[C@@H](C2)[N+](C)([O-])CC[C@]314` (stereo partly drawn) [oxycodone N-oxide], in data set [19], the “form of metabolite in urine” value was “found only in the free, unconjugated form”.
